# Measurements published in patent publication US11739098B2 (BRISTOL-MYERS SQUIBB COMPANY, priority 2017, dated 2023).
# How the values were obtained:
# Assay type in all cases: cell-based
# human TLR9 = biological target: T1, human TLR9 (Homo sapiens, UniProt Q9NR96); experiment: TLR9 inhibition reporter assay (HEK-Blue cells, SEAP reporter, ODN2006 stimulation); conditions: HEK-Blue cells overexpressing human TLR9, SEAP reporter, ODN2006 5 nM
# T1 construct: host or cells: HEK-Blue cells (HEK293-derived reporter line)
# T1 sequence (Q9NR96 26-1032): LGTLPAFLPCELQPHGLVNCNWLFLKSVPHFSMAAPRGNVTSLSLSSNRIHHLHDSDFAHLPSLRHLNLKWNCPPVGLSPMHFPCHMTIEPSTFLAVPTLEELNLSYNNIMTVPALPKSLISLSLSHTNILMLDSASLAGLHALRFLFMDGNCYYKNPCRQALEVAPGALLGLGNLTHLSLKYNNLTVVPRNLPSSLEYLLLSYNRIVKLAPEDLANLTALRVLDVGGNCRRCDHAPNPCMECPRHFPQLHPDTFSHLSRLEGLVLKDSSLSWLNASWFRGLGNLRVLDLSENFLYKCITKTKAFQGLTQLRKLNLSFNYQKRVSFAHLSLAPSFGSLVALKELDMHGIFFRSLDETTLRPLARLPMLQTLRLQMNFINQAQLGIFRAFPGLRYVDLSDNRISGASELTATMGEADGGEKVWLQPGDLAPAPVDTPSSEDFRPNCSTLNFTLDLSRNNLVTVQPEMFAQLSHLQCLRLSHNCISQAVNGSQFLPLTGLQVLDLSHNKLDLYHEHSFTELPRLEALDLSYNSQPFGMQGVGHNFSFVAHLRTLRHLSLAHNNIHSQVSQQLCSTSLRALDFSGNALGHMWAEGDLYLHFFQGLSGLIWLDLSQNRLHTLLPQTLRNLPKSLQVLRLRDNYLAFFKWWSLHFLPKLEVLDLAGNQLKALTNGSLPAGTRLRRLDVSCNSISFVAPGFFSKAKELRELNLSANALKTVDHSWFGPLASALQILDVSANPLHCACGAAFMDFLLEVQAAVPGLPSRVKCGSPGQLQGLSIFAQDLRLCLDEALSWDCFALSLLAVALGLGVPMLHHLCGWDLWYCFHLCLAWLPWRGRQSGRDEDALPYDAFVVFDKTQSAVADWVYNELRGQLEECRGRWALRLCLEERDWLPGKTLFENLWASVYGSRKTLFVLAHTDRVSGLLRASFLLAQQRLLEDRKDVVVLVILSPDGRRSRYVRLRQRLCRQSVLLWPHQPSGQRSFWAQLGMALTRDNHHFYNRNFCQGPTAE
# Summary of the method: (§1)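 HEK-Blue cells overexpressing the receptor, with NF-κB/AP-1-driven SEAP, were pre-treated 30 min at room temperature with compound (0.05 nM–50 μM), then stimulated with gardiquimod 7.5 μM (TLR7), R848 15.9 μM (TLR8) or ODN2006 5 nM (TLR9). SEAP was read after 22 h at 37 °C as percent inhibition.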
# human TLR7 = biological target: T2, human TLR7 (Homo sapiens, UniProt Q9NYK1); experiment: TLR7 inhibition reporter assay (HEK-Blue cells, SEAP reporter, gardiquimod stimulation); conditions: HEK-Blue cells overexpressing human TLR7, SEAP reporter, gardiquimod 7.5 μM
# T2 construct: host or cells: HEK-Blue cells (HEK293-derived reporter line)
# T2 sequence (Q9NYK1 27-1049): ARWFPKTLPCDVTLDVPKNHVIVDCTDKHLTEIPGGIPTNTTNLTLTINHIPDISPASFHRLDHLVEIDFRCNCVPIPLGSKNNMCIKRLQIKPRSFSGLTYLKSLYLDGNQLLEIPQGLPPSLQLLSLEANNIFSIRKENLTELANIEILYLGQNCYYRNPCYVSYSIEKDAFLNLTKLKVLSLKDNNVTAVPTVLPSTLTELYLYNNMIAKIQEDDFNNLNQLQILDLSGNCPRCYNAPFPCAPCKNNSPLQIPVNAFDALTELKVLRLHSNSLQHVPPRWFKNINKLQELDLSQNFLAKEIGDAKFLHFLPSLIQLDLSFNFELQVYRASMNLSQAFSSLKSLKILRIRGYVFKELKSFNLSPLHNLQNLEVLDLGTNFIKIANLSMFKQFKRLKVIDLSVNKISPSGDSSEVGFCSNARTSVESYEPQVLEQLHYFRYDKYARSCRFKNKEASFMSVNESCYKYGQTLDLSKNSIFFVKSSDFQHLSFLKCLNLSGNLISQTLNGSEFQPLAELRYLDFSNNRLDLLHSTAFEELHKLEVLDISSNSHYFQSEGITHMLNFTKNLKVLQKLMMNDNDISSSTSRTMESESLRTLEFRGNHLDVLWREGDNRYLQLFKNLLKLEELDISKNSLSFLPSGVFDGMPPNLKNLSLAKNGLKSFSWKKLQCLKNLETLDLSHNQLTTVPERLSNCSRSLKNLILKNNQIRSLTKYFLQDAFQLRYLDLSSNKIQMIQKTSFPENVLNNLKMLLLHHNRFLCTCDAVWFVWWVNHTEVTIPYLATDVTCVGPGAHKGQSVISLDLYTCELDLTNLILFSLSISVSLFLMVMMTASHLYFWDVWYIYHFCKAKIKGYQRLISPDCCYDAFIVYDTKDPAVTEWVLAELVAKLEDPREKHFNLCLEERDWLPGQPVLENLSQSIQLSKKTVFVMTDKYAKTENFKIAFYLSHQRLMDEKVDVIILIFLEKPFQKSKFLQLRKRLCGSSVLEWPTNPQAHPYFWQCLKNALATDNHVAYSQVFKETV
# Summary of the method: as §1
# human TLR8 = biological target: T3, human TLR8 (Homo sapiens, UniProt Q9NR97); experiment: TLR8 inhibition reporter assay (HEK-Blue cells, SEAP reporter, R848 stimulation); conditions: HEK-Blue cells overexpressing human TLR8, SEAP reporter, R848 15.9 μM
# T3 construct: host or cells: HEK-Blue cells (HEK293-derived reporter line)
# T3 sequence (Q9NR97 27-1041): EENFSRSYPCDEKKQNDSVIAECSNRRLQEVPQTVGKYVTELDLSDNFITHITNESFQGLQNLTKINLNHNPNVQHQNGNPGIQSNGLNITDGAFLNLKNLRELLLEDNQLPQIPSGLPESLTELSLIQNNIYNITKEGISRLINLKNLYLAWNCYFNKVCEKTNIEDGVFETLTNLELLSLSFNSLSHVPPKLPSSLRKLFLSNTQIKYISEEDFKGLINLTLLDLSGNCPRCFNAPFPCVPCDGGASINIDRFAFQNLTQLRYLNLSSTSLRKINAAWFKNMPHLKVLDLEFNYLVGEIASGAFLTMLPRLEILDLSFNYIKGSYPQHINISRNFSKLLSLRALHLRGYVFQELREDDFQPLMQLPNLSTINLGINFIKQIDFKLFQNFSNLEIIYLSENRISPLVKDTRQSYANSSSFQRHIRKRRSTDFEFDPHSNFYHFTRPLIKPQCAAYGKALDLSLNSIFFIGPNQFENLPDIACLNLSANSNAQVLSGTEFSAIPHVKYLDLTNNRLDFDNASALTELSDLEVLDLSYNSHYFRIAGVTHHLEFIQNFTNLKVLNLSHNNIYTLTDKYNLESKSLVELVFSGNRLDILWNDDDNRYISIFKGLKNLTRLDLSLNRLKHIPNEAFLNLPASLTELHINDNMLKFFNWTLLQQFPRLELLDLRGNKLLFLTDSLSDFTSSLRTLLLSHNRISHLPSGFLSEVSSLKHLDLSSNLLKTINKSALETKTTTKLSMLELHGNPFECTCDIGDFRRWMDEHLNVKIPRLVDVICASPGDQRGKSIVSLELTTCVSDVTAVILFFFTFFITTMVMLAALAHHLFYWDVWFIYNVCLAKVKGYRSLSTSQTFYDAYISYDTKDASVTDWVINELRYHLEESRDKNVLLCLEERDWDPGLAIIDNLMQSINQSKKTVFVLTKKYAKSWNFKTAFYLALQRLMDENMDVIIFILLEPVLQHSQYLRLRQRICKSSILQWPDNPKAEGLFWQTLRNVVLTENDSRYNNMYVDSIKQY
# Summary of the method: as §1
IC50 (human TLR9),IC50 (human TLR7),IC50 (human TLR8),Compound
0.1 to 1 µM,< 0.1 µM,< 0.1 µM,"CC(C)c1c(-c2ccnc3[nH]ncc23)[nH]c2ccc(C3CCN(Cc4ccc(N5CCN(C)CC5)cc4)CC3)cc12 [Example 919, 4-(3-isopropyl-5-(1-(4-(4-methylpiperazin-1-yl)benzyl)piperidin-4-yl)-1H-indol-2-yl)-1H-pyrazolo[3,4-b]pyridine]"
0.1 to 1 µM,< 0.1 µM,< 0.1 µM,"Cc1cc(-c2[nH]c3ccc(C4CCNCC4)cc3c2C(C)C)cc2cncn12 [Example 164, 7-(3-isopropyl-5-(piperidin-4-yl)-1H-indol-2-yl)-5-methylimidazo[1,5-a]pyridine]"
0.1 to 1 µM,< 0.1 µM,< 0.1 µM,"CC(C)c1c(-c2cc(C(F)(F)F)c3nccn3c2)[nH]c2ccc(C3CCNCC3)cc12 [Example 136, 6-(3-isopropyl-5-(piperidin-4-yl)-1H-indol-2-yl)-8-(trifluoromethyl)imidazo[1,2-a]pyridine]"
> 50 µM,> 50 µM,> 50 µM,"CCc1c(-c2ccnc3[nH]ncc23)[nH]c2ccc(C3CCN(Cc4cnc(N)s4)CC3)cc12 [Example 931, 5-((4-(3-ethyl-2-(1H-pyrazolo[3,4-b]pyridin-4-yl)-1H-indol-5-yl)piperidin-1-yl)methyl)thiazol-2-amine]"
1 to 50 µM,0.1 to 1 µM,0.1 to 1 µM,"CC(C)c1c(-c2ccn3cnnc3c2)[nH]c2ccc(C3CCN(CC(=O)N(C)C)CC3)cc12 [Example 305, 2-(4-(2-([1,2,4]triazolo[4,3-a]pyridin-7-yl)-3-isopropyl-1H-indol-5-yl)piperidin-1-yl)-N,N-dimethylacetamide]"
0.1 to 1 µM,< 0.1 µM,< 0.1 µM,"CNCCN1CCC(c2ccc3[nH]c(-c4ccnc5[nH]ncc45)c(C(C)C)c3c2)C(F)(F)C1 (stereo not drawn) [Example 674, 2-(3,3-difluoro-4-(3-isopropyl-2-(1H-pyrazolo[3,4-b]pyridin-4-yl)-1H-indol-5-yl)piperidin-1-yl)-N-methylethan-1-amine]"
1 to 50 µM,< 0.1 µM,< 0.1 µM,"Cc1cc(-c2[nH]c3ccc(C4CCN(C(=O)CN(C)C)CC4)cc3c2C(C)C)nc2scnc12 [Example 543, 2-(dimethylamino)-1-(4-(3-isopropyl-2-(7-methylthiazolo[5,4-b]pyridin-5-yl)-1H-indol-5-yl)piperidin-1-yl)ethan-1-one]"
0.1 to 1 µM,< 0.1 µM,0.1 to 1 µM,"CN(C)CC(=O)N1CCC(c2ccc3[nH]c(-c4cc(F)c5nccn5c4)c(CC(F)F)c3c2)CC1 [Example 546, 1-(4-(3-(2,2-difluoroethyl)-2-(8-fluoroimidazo[1,2-a]pyridin-6-yl)-1H-indol-5-yl)piperidin-1-yl)-2-(dimethylamino)ethan-1-one]"
1 to 50 µM,0.1 to 1 µM,1 to 50 µM,"CC(C)c1c(-c2cnc3nn(C)cc3c2)[nH]c2ccc(C3CCN(CC(C)(C)O)CC3)cc12 [Example 765, 1-(4-(3-isopropyl-2-(2-methyl-2H-pyrazolo[3,4-b]pyridin-5-yl)-1H-indol-5-yl)piperidin-1-yl)-2-methylpropan-2-ol]"
1 to 50 µM,0.1 to 1 µM,0.1 to 1 µM,"CCc1c(-c2ccnc3[nH]ncc23)[nH]c2ccc(C3CCN(C(=O)C4CCNCC4)CC3)cc12 [Example 647, (4-(3-ethyl-2-(1H-pyrazolo[3,4-b]pyridin-4-yl)-1H-indol-5-yl)piperidin-1-yl)(piperidin-4-yl)methanone]"
1 to 50 µM,< 0.1 µM,< 0.1 µM,"CNCC(=O)N1CCC(c2ccc3[nH]c(-c4cc(C)nc5ccccc45)c(C(C)C)c3c2)CC1 [Example 534, 1-(4-(3-isopropyl-2-(2-methylquinolin-4-yl)-1H-indol-5-yl)piperidin-1-yl)-2-(methylamino)ethan-1-one]"
1 to 50 µM,0.1 to 1 µM,0.1 to 1 µM,"CCc1c(-c2n[nH]c3ncccc23)[nH]c2ccc(C3CCNCC3)cc12 [Example 244, 3-(3-ethyl-5-(piperidin-4-yl)-1H-indol-2-yl)-1H-pyrazolo[3,4-b]pyridine]"
1 to 50 µM,< 0.1 µM,< 0.1 µM,"CC(C)c1c(-c2ccc3ncnn3n2)[nH]c2ccc(C3CCN(C(=O)CN(C)C)CC3)cc12 [Example 452, 1-(4-(2-([1,2,4]triazolo[1,5-b]pyridazin-6-yl)-3-isopropyl-1H-indol-5-yl)piperidin-1-yl)-2-(dimethylamino)ethan-1-one]"
0.1 to 1 µM,< 0.1 µM,< 0.1 µM,"CC(C)c1c(-c2ccnc3[nH]ncc23)[nH]c2ccc(C3CCN(C(=O)CNCCCN(C)C)CC3)cc12 [Example 575, 2-((3-(dimethylamino)propyl)amino)-1-(4-(3-isopropyl-2-(1H-pyrazolo[3,4-b]pyridin-4-yl)-1H-indol-5-yl)piperidin-1-yl)ethan-1-one]"
